Article PMC6270413 (2013)

Tests used:
[1] = tested on: C-myc quadruplex (DNA, G4) TGGGGAGGGTGGGGAGGGTGGGGAAGG; assay: fluorescent intercalator displacement titration; conditions: K+ 100 mM (KCl); 10 mM Tris-HCl, 0.1 mM EDTA, pH 7.5; thiazole orange displaced
[2] = tested on: C-myc quadruplex (DNA, G4) TGGGGAGGGTGGGGAGGGTGGGGAAGG; assay: circular dichroism titration; conditions: K+ 100 mM (KCl); 10 mM Tris-HCl, 0.1 mM EDTA, pH 7.5, 20 °C; 10 µM strand; induced CD only above ratio two
[3] = tested on: TFO C-myc duplex (Table 2: C-myc duplex) (DNA, duplex) AGGGAGGGAGGTAAGAAAAAGGG/CCCTTTTTCTTACCTCCCTCCCT; assay: FID screen (thiazole orange displacement, single concentration); conditions: K+ 100 mM (KCl); 10 mM Tris-HCl, 0.1 mM EDTA, pH 7.5, 21–23 °C; 0.25 µM duplex, 0.50 µM TO, ligand 1:1
[4] = tested on: C-myc quadruplex (DNA, G4) TGGGGAGGGTGGGGAGGGTGGGGAAGG; assay: UV-Vis absorption (hypochromism, 19 nm bathochromic shift); conditions: K+ 100 mM (KCl); 10 mM Tris-HCl, 0.1 mM EDTA, pH 7.5, 22–24 °C; 5 µM DNA, 5 µM ligand
[5] = tested on: C-myc quadruplex (DNA, G4) TGGGGAGGGTGGGGAGGGTGGGGAAGG; assay: fluorescence titration; conditions: K+ 100 mM (KCl); 10 mM Tris-HCl, 0.1 mM EDTA, pH 7.5

| DC50 [1] [µM] | binding [2] | binding [3] | binding [4] | binding [5] | Structure (SMILES) |
| --- | --- | --- | --- | --- | --- |
| 1.58 ± 0.01 | yes | yes | yes | – | CN1CCN(c2ccc3nc(-c4ccc5nc(-c6ccc(O)cc6)[nH]c5c4)[nH]c3c2)CC1 |
| – | – | – | – | yes | CN1C(=Cc2cc[n+](C)c3ccccc23)Sc2ccccc21 |
| > 5.5 | – | – | – | – | NC[C@@H]1O[C@H](O[C@H]2[C@@H](O)[C@H](O[C@@H]3[C@@H](O)[C@H](N)C[C@H](N)[C@H]3O[C@H]3O[C@H](CN)[C@@H](O)[C@H](O)[C@H]3N)O[C@@H]2CO)[C@H](N)[C@@H](O)[C@@H]1O |
